Measured values taken from PubChem BioAssay (NCI).
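Dose response: 5 concentrations. Exposure: 48 h. Format: 96-well plates. Endpoint: linear interpolation; highest concentration if not reached. Abbreviation: GI50, concentration required for 50% inhibition of growth. Definition used: TGI = concentration required for complete inhibition of growth.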

Tests used:
Assay in all cases: NCI-60 cell line screen, 48 h
CAKI-1 renal = system: CAKI-1 renal
HCC-2998 colon = system: HCC-2998 colon
HCT-116 colon = system: HCT-116 colon
HL-60(TB) leukemia = system: HL-60(TB) leukemia
HOP-92 NSCLC = system: HOP-92 NSCLC
HS 578T breast = system: HS 578T breast
MALME-3M melanoma = system: MALME-3M melanoma
NCI/ADR-RES ovarian = system: NCI/ADR-RES ovarian
SR leukemia = system: SR leukemia
SW-620 colon = system: SW-620 colon

SMILES | GI50 (CAKI-1 renal) | TGI (CAKI-1 renal) | GI50 (HCC-2998 colon) | TGI (HCC-2998 colon) | GI50 (HCT-116 colon) | TGI (HCT-116 colon) | GI50 (HL-60(TB) leukemia) | TGI (HL-60(TB) leukemia) | GI50 (HOP-92 NSCLC) | TGI (HOP-92 NSCLC) | GI50 (HS 578T breast) | TGI (HS 578T breast) | GI50 (MALME-3M melanoma) | TGI (MALME-3M melanoma) | GI50 (NCI/ADR-RES ovarian) | TGI (NCI/ADR-RES ovarian) | GI50 (SR leukemia) | TGI (SR leukemia) | GI50 (SW-620 colon) | TGI (SW-620 colon)
Cn1c(=O)c(Oc2ccc(F)cc2F)cc2cnc(NC3CCS(=O)(=O)CC3)nc21 | > 25 µM | > 25 µM | > 25 µM | > 25 µM | > 25 µM | > 25 µM | > 25 µM | > 25 µM | 5.23 µM | > 25 µM | > 25 µM | > 25 µM | > 25 µM | > 25 µM | > 25 µM | > 25 µM | > 25 µM | > 25 µM | > 25 µM | > 25 µM
CC(C)(C)c1c2c(c(C(C)(C)C)c3c1OCN(Cc1ccccc1)C3)OCN(Cc1ccccc1)C2 | – | > 100 µM | – | 22.3 µM | – | 24.4 µM | – | – | – | 28.1 µM | – | 55.9 µM | – | 43.1 µM | – | 41 µM | – | 53.2 µM | – | > 100 µM
O=C(O)c1ccc(C(=O)O)c(C(=O)Nc2ccc3c(c2)C(=O)c2ccccc2-3)c1 | – | > 100 µM | – | > 100 µM | – | > 100 µM | – | > 100 µM | – | > 100 µM | – | > 100 µM | – | > 100 µM | – | > 100 µM | – | > 100 µM | – | > 100 µM
CCCCCCCCC(=O)OCC(CS[As](C)C)OC(=O)CCCCCCCC (centres undefined) | 0.22 µM | 1.12 µM | 0.356 µM | 1.83 µM | 0.373 µM | 11.3 µM | 0.285 µM | 1.78 µM | 1.93 µM | 18.3 µM | 1.39 µM | – | 0.0531 µM | 0.708 µM | 0.89 µM | 3.07 µM | 1.03 µM | 5.41 µM | 0.349 µM | 14.9 µM
CN1C/C=C/CCOc2cccc(c2)-c2ccnc(n2)Nc2cccc(c2)C1 | 0.039 µM | 0.46 µM | 0.048 µM | 0.623 µM | 0.0277 µM | 1.08 µM | 0.0259 µM | 0.0941 µM | 0.0428 µM | 0.242 µM | 0.0367 µM | 0.438 µM | 0.0469 µM | 0.179 µM | 0.0561 µM | 0.963 µM | 0.0201 µM | – | 0.0396 µM | 0.969 µM
COc1cc(-c2c(C#N)c(N)nc(N3CCOCC3)c2C#N)cc(OC)c1OC | > 100 µM | > 100 µM | – | – | 86.5 µM | > 100 µM | > 100 µM | > 100 µM | 35.9 µM | > 100 µM | 94 µM | > 100 µM | – | – | > 100 µM | > 100 µM | 13.4 µM | 40.2 µM | > 100 µM | > 100 µM
CCCCCCCCCCCCCCCCC(=O)O.CCCCCCCCCCCCCCCCCC(=O)O.CCCCCCCCCCCCCCCCCC(=O)O.CCCCCCCCCCCCCCCCCC(=O)O.CCCCCCCCCCCCCCCCCC(=O)O.CO[CH-]OC12COC1CC(O)C1(C)C(O)C(OC(C)O)C3=C(C)C(OC(=O)C(O)C([NH-])c4ccccc4)CC(O)(C(OC(=O)c4ccccc4)C21)C3(C)C.[Cu+].[Zn].[Zn].[Zn].[Zn].[Zn] (centres undefined) | 0.0513 µM | > 25 µM | 0.00647 µM | – | 0.00309 µM | > 25 µM | 0.00466 µM | > 25 µM | 0.858 µM | 12.8 µM | 0.00335 µM | 0.0297 µM | 0.00947 µM | 6.91 µM | 2.31 µM | 24.6 µM | 0.00414 µM | 11.5 µM | 0.00662 µM | > 16.2 µM
CC(C)(C)CC(N)=O | – | > 100 µM | – | > 100 µM | – | > 100 µM | – | > 100 µM | – | > 100 µM | – | > 100 µM | – | – | – | > 100 µM | – | > 100 µM | – | > 100 µM
CC(=O)Oc1ccc(/C(=C(\C)c2ccc(Cl)cc2)c2ccc(OCCN3CCCCC3)cc2)cc1 | – | – | 1.87 µM | 3.68 µM | 1.34 µM | 2.72 µM | 2.09 µM | 4.35 µM | 1.64 µM | 4.42 µM | 2.14 µM | 4.82 µM | 1.96 µM | 3.91 µM | 1.97 µM | 5.44 µM | 0.739 µM | 3.06 µM | 1.85 µM | 3.93 µM
NCOC(=O)Cc1ccc(Br)cc1 | – | – | – | – | – | > 100 µM | – | > 100 µM | – | > 100 µM | – | > 100 µM | – | > 100 µM | – | > 100 µM | – | > 100 µM | – | > 100 µM
CC1OC(OC2C(OC3CCC4(C)C(CCC5(C)C4CC=C4C6CC(C)(C)CCC6(C(=O)O)CCC45C)C3(C)CO)OCC(O)C2O)C(O)C(O)C1O (centres undefined) | – | 36.6 µM | – | 30.8 µM | – | > 100 µM | – | – | – | 27.3 µM | – | 31.8 µM | – | 37.5 µM | – | 43.4 µM | – | 9.74 µM | – | 55.4 µM
Cn1c(NCC(O)CN2CCCC2)cc(=O)n(C)c1=O (centres undefined) | > 100 µM | > 100 µM | > 100 µM | > 100 µM | > 100 µM | > 100 µM | – | – | > 100 µM | > 100 µM | > 100 µM | > 100 µM | > 100 µM | > 100 µM | > 100 µM | > 100 µM | > 100 µM | > 100 µM | > 100 µM | > 100 µM
COc1cc(-c2cc(-c3cc(OC)c(OC)c(OC)c3)nc3nc(N)[nH]c(=O)c23)ccc1Oc1ccnc2cc(Cl)ccc12 | 2.7 µM | > 100 µM | 3.14 µM | 11.3 µM | 1.29 µM | 22.2 µM | 2.45 µM | 8.22 µM | – | – | 3.1 µM | > 100 µM | 3.5 µM | > 100 µM | 2.14 µM | > 100 µM | 0.468 µM | 29.6 µM | 1.35 µM | > 100 µM
CC(=O)c1cc(C(=O)c2ccc3c(c2)Sc2ccccc2N3)c2cc(C)ccn12 | 0.053 µM | > 100 µM | 0.247 µM | 20.6 µM | 0.0414 µM | > 100 µM | – | – | > 100 µM | > 100 µM | 0.084 µM | > 100 µM | 0.0429 µM | > 100 µM | 0.0369 µM | > 100 µM | 0.0386 µM | > 100 µM | 0.0559 µM | > 100 µM
Cc1ccc2c(c1)S(=O)(=O)c1ccc3ccccc3c1N2 | – | > 100 µM | – | > 100 µM | – | > 100 µM | – | > 100 µM | – | > 100 µM | – | > 100 µM | – | – | – | > 100 µM | – | 69.5 µM | – | > 100 µM
